Results published in PMC3758310, “The Human Cathelicidin LL-37 Has Antiviral Activity against Respiratory Syncytial Virus” (PLoS ONE, 2013).

Tests used:
RSV-infected HEp-2 cells = assay: MTT assay of viable metabolically active RSV-infected HEp-2 cells (cytopathic effects); assay type: cell-based; conditions: for viable HEp-2 cells surviving RSV infection at 5 days, pre-treatment condition: simultaneous RSV MOI = 0.005 and LL-37 0–50 µg/ml, scrambled LL-37 50 µg/ml or ribavirin 200 µM for 2 hours, 5 days without treatment; for protection of RSV-infected HEp-2 cells from cell death at 5 days, continuous treatment condition: treatment re-added after wash and present for 5 days, ribavirin 200 µM, LL-37 p<0.01, ribavirin p<0.001 vs untreated infected
Protocol: HEp-2 cells were treated with LL-37, a scrambled control LL-37 at 50 µg/ml or ribavirin (200 µM; Sigma Aldrich), in the presence or absence of simultaneous infection with RSV (MOI = 0.005). Cells were incubated for 2 hours at 37°C, washed and placed in fresh media. In some wells LL-37 or ribavirin was added again at this point (for “continuous treatment”). Cells were cultured at 37°C for 24 hours or 5 days, after which the number of viable metabolically active cells was assessed using an MTT assay (Sigma Aldrich) according to manufacturer's instructions (7.5 mg/ml, 37°C, 4 hours). Resulting formazan was dissolved in dimethylsulfoxide (Sigma Aldrich) and optical density was measured at 450 nm. Alternatively, cells simultaneously treated with or without LL-37 in presence or absence of RSV infection were allowed to dry for 10 minutes before they were fixed and permeabilised using ice-cold acetone/methanol (1∶1) for 10 minutes at 4°C. After a wash with PBS, cells were subjected to TUNEL assay using an In situ cell death kit (Roche Applied Science, UK) according to manufacturer's instructions. Cells were washed three times with PBS and 1 µg/ml DAPI was included in the second wash (3 minutes staining). Cells were examined by fluorescent microscopy, four representative images per well were captured using an EVOS fl imaging system (PEQLAB Ltd) and TUNEL positive and negative cells were quantified using ImageJ (http://rsbweb.nih.gov/ij/index.html).

RSV viral particles = assay: Direct viral inactivation assay; assay type: cell-based, RSV strain A2
Protocol: A modified viral inactivation assay was performed. 1 ml RSV (PFU = 2×10^3, equivalent to MOI = 0.05) was mixed with 25 µg/ml LL-37, followed by immediate 10-fold dilution in serum-free medium to reach sub-therapeutic concentrations of LL-37 (2.5 µg/ml) and RSV MOI = 0.005. 25 µg/ml scrambled LL-37 or PBS were used as negative controls. HEp-2 monolayers were infected with this virus/peptide mixture for 2 hours then washed, before cells were cultured in serum-free medium for 24 hours. Fixed monolayers were subjected to immunoplaque assay.

RSV [1] = assay: Immunoplaque assay of RSV-infected Vero cells (type I interferon deficient) at 24 hours; assay type: cell-based, RSV strain A2; conditions: 25 µg/ml simultaneous with RSV MOI = 0.005 for 2 hours, p<0.001, n = 3-5
Protocol: (§1) HEp-2 cells (ATCC CCL-23), Vero cells (ATCC CCL-81) and 16HBE14o^- transformed human bronchial epithelial cells (a kind gift from Dieter Gruenert, University of California) were cultured in DMEM/F12 (Gibco/Life Technologies Ltd, Paisley, UK) or RPMI (Gibco) respectively, supplemented with 2 mM L-glutamine (PAA Laboratories, Yeovil, UK) and 10% FCS (Biosera, East Sussex, UK), at 37°C and 5% CO2. 16HBE14o^- cells were cultured on wells previously coated with a basement layer of collagen IV (5 µg/ml), fibronectin (10 µg/ml) and bovine serum albumin (100 µg/ml) (all Sigma Aldrich, Dorset, UK).
(§2) An immunoplaque assay (based on) was used to quantify RSV infected cells. […] Peptide treatments were therefore primarily evaluated at RSV MOI = 0.005, however higher MOIs (up to 1) were also tested and similar effects of peptides were observed (data not shown). […] Cells were stained using 3-amino-ethylcarbazole substrate (Invitrogen/Life technologies) according to manufacturer's instructions for 15 minutes, washed 3 times with PBS and infected RSV positive foci were quantified by light microscopy, counting 3–4 wells per condition. […] Quantification was performed using the ImageJ plugin Treshold_colour to measure the percentage of cells positive for RSV infection. 3 wells were assessed per condition, using 4 random fields of view captured per well. […]

HEp-2 cells [2] = assay: TUNEL assay of cell death in HEp-2 cells; assay type: cell-based, human; conditions: in the presence or absence of RSV or LL-37, 24 hours after infection; data not shown
Protocol: (§3) HEp-2 cells were treated with LL-37, a scrambled control LL-37 at 50 µg/ml or ribavirin (200 µM; Sigma Aldrich), in the presence or absence of simultaneous infection with RSV (MOI = 0.005). Cells were incubated for 2 hours at 37°C, washed and placed in fresh media. In some wells LL-37 or ribavirin was added again at this point (for “continuous treatment”). Cells were cultured at 37°C for 24 hours or 5 days, after which the number of viable metabolically active cells was assessed using an MTT assay (Sigma Aldrich) according to manufacturer's instructions (7.5 mg/ml, 37°C, 4 hours). Resulting formazan was dissolved in dimethylsulfoxide (Sigma Aldrich) and optical density was measured at 450 nm. Alternatively, cells simultaneously treated with or without LL-37 in presence or absence of RSV infection were allowed to dry for 10 minutes before they were fixed and permeabilised using ice-cold acetone/methanol (1∶1) for 10 minutes at 4°C. After a wash with PBS, cells were subjected to TUNEL assay using an In situ cell death kit (Roche Applied Science, UK) according to manufacturer's instructions. […] Cells were examined by fluorescent microscopy, four representative images per well were captured using an EVOS fl imaging system (PEQLAB Ltd) and TUNEL positive and negative cells were quantified using ImageJ (http://rsbweb.nih.gov/ij/index.html).

RSV [3] = assay: Immunoplaque assay of RSV-infected HEp-2 cells at 24 hours; assay type: cell-based, RSV strain A2; conditions: for reduction in number of infected cells: then 2 hours infection
Protocol: RSV strain A2 (VR-1540) was purchased from ATCC. RSV was propagated in HEp-2 cells by infecting 5×10^6 cells that were allowed to grow on confluent overnight in serum-free VP-SFM media (Gibco) for 2 hours with 0.1 plaque forming units (PFU) followed by removal of inoculum. Cells were then incubated for 24 hours in 10% FCS Gold (PAA Laboratories) supplemented VP-SFM. Cells were then incubated for a further 5 days in 2% FCS Gold supplemented VP-SFM, cells were harvested and supernatant was snap-frozen and stored at −80°C.
An immunoplaque assay (based on) was used to quantify RSV infected cells. Optimisation of the infection protocol was conducted using serial dilutions of RSV to assess the PFU of propagated virus stocks and establish an optimal MOI of 0.005 that allowed reliable counting of individual infected cells (approximately 100–250 per well) in a control infected culture at 24 hours. Peptide treatments were therefore primarily evaluated at RSV MOI = 0.005, however higher MOIs (up to 1) were also tested and similar effects of peptides were observed (data not shown). For experimental assessment of the antiviral effects of peptides, cells were seeded at 2×10^4 per well in 96-well plates and cultured overnight, then washed and infected, in fresh serum-free medium. After 2 hours, inoculum was removed and cells were cultured in fresh medium for 24, 48 or 72 hours before analysis. Peptides were added before, after or concomitantly with RSV infection as described for individual experiments. Monolayers were fixed in absolute methanol/2% hydrogen peroxide solution for 30 minutes and washed twice with PBS. Cells were exposed to monoclonal biotinylated anti-RSV antibody in 5% BSA/PBS for 1 hour (1∶200, AbD Serotec, Kidlington, UK), washed twice with PBS and were incubated with extravidin peroxidase in 5% BSA/PBS for 30 minutes (1∶500, Sigma Aldrich). Cells were stained using 3-amino-ethylcarbazole substrate (Invitrogen/Life technologies) according to manufacturer's instructions for 15 minutes, washed 3 times with PBS and infected RSV positive foci were quantified by light microscopy, counting 3–4 wells per condition. For later timepoint analysis (48 and 72 hours post infection with RSV MOI = 0.0005), fixed and stained monolayers were examined by light microscopy and images were captured using an EVOS fl imaging system (PEQLAB Ltd, UK). Quantification was performed using the ImageJ plugin Treshold_colour to measure the percentage of cells positive for RSV infection. 3 wells were assessed per condition, using 4 random fields of view captured per well. To assess the production of infectious viral particles, supernatants were serially diluted and transferred to fresh HEp-2 monolayers, incubated for 2 hours at 37°C, washed, incubated for a further 24 hours and then assessed by immunoplaque assay.

RSV [4] = assay: Spread of RSV infection in HEp-2 cultures over 48 and 72 hours (immunoplaque, image analysis); assay type: cell-based, RSV strain A2; conditions: washed, 48 or 72 hours, n = 3
Protocol: (§4) An immunoplaque assay (based on) was used to quantify RSV infected cells. Optimisation of the infection protocol was conducted using serial dilutions of RSV to assess the PFU of propagated virus stocks and establish an optimal MOI of 0.005 that allowed reliable counting of individual infected cells (approximately 100–250 per well) in a control infected culture at 24 hours. Peptide treatments were therefore primarily evaluated at RSV MOI = 0.005, however higher MOIs (up to 1) were also tested and similar effects of peptides were observed (data not shown). […] Cells were stained using 3-amino-ethylcarbazole substrate (Invitrogen/Life technologies) according to manufacturer's instructions for 15 minutes, washed 3 times with PBS and infected RSV positive foci were quantified by light microscopy, counting 3–4 wells per condition. […] Quantification was performed using the ImageJ plugin Treshold_colour to measure the percentage of cells positive for RSV infection. 3 wells were assessed per condition, using 4 random fields of view captured per well. To assess the production of infectious viral particles, supernatants were serially diluted and transferred to fresh HEp-2 monolayers, incubated for 2 hours at 37°C, washed, incubated for a further 24 hours and then assessed by immunoplaque assay.

RSV [5] = assay: Production of new infectious viral particles (supernatant transfer to fresh HEp-2 cells, immunoplaque assay); assay type: cell-based, RSV strain A2
Protocol: as §4

HEp-2 cells [6] = assay: MTT assay of uninfected HEp-2 cells; assay type: cell-based, human; conditions: LL-37 ≤50 µg/ml, 2 hours, washed, n = 3-4
Protocol: as §3

RSV [7] = assay: Immunoplaque assay of RSV-infected 16HBE14o- cells at 24 hours; assay type: cell-based, RSV strain A2; conditions: RSV MOI = 0.005, simultaneous peptide and virus 2 hours, washed, n = 3-5
Protocol: as §1, §2

## NC(=O)c1ncn([C@@H]2O[C@H](CO)[C@@H](O)[C@H]2O)n1 [ribavirin, reference compound]
RSV-infected HEp-2 cells; washed, n = 3-4
  viable HEp-2 cells surviving RSV infection at 5 days, pre-treatment condition: Neither scrambled LL-37 nor the antiviral ribavirin had any direct effect
RSV-infected HEp-2 cells
  protection of RSV-infected HEp-2 cells from cell death at 5 days, continuous treatment condition: significant protection of epithelial cells from cell death

## LL-37: active form of the sole human cathelicidin hCAP-18; cationic host defence peptide
RSV viral particles; RSV MOI = 0.005 pre-mixed with 2.5 µg/ml LL-37 before immediate use, HEp-2, 24 hours
  antiviral effect of virus and cell exposure to 2.5 µg/ml LL-37: no significant effects
RSV viral particles; RSV MOI = 0.05 pre-mixed with 25 µg/ml, immediate 1:10 dilution, HEp-2 infected 2 hours, 24 hours, immunoplaque, n≥3
  antiviral effect of virus exposure to 25 µg/ml peptide followed by 1 in 10 dilution (cell exposure 2.5 µg/ml): significant antiviral effects
RSV [1]
  antiviral activity against RSV in Vero cells: identical significant antiviral activity
HEp-2 cells [2]
  TUNEL positive HEp-2 cells: 0.5–1.5%
RSV [3]; 25 µg/ml LL-37, in vitro
  decrease in the number of initially infected cells: approximately 1 log
RSV [3]; 25 µg/ml simultaneous with RSV MOI = 0.005 for 2 hours, 24 hours, p<0.001, n = 3-5
  antiviral activity against RSV in HEp-2 cells: identical significant antiviral activity
RSV [3]; HEp-2, RSV MOI = 0.005, simultaneous peptide and virus 2 hours, washed, 24 hours at 37°C, p<0.05 vs virus alone, mean of n = 3-5
  LL-37 concentration giving significant, concentration-dependent reduction in infectivity (number of RSV-infected cells): ≥ 10 µg/mL
RSV [3]; HEp-2, RSV MOI = 0.005 for 2 hours, washed, then 1 hour LL-37, infected cells at 24 hours
  antiviral effect, LL-37 treatment delayed until 2 hours after viral infection (Virus first): loss of the antiviral effect
RSV [3]; HEp-2, RSV preincubated with 25 µg/ml LL-37 for 1 hour at 4°C, 24 hours, p<0.001
  reduction in number of infected cells: approximately 1 log
RSV [3]; HEp-2, RSV preincubated with 25 µg/ml LL-37 for 1 hour at 37°C, 24 hours, p<0.01
  reduction in number of infected cells: approximately 1 log
RSV [3]; HEp-2, simultaneous RSV MOI = 0.005 and peptide at 1, 10 and 25 µg/ml for 2 hours, washed, 24 hours, n = 3
  antiviral activity of full length and 22-mer partial peptides (number of infected cells): significant antiviral activity
RSV [3]; HEp-2 pre-treated 25 µg/ml LL-37 1 hour, washed, RSV MOI = 0.005 at 1 or 3 hours, p<0.001, n≥3
  protection against RSV infection when infection delayed up to 3 hours after LL-37 treatment and cell washing: significant protection against RSV infection
RSV [3]; HEp-2 pre-treated 25 µg/ml LL-37 1 hour, washed, RSV MOI = 0.005 at 24 hours
  protection against RSV infection when infection delayed 24 hours after LL-37 treatment and cell washing: no protection evident
RSV [3]; HEp-2 treated with LL-37 1 hour, washed, 2 hour RSV infection MOI = 0.005, 24 hours, p<0.001
  RSV infection after pre-incubation of cells with LL-37 and washing (LL-37 first): significantly less RSV infection
RSV [4]; HEp-2, RSV MOI = 0.0005 2 hours, 25 µg/ml LL-37 1 hour
  spread of infection beyond initially infected cells, LL-37 added after RSV infection (virus first): spread of infection beyond the cells initially infected was minimised
RSV [4]; HEp-2, RSV MOI = 0.0005, 25 µg/ml peptide 2 hours
  spread of infection beyond initially infected cells, peptide added simultaneously with RSV: spread of infection beyond the cells initially infected was minimised
RSV [5]; 25 µg/ml LL-37 replaced after wash, 3 days, p<0.05
  infectivity of supernatant at day 3 with LL-37 remaining in the media (continuous): reducing infectivity up to day 3
RSV [5]; HEp-2, RSV with 25 µg/ml peptide 2 hours, washed, fresh media with or without peptide, supernatant infectivity on fresh HEp-2, p<0.001, n = 3
  production of new infectious viral particles: very substantially, fewer new infectious viral particles
RSV-infected HEp-2 cells; LL-37 ≤50 µg/ml, RSV MOI = 0.005, 2 hours, washed, 24 hours, OD 450 nm, n = 3-4
  number of metabolically active RSV-infected HEp-2 cells at 24 hours: did not have any substantial effect
RSV-infected HEp-2 cells; washed, n = 3-4
  viable HEp-2 cells surviving RSV infection at 5 days, pre-treatment condition: significantly more viable HEp-2 cells surviving RSV infection in a dose-dependent manner
RSV-infected HEp-2 cells
  protection of RSV-infected HEp-2 cells from cell death at 5 days, continuous treatment condition: significant protection of epithelial cells from cell death
HEp-2 cells [6]
  number of metabolically active uninfected HEp-2 cells after 5 days: did not affect the number of metabolically active HEp-2 cells
RSV [7]
  antiviral effect (number of RSV-infected cells relative to untreated infected cells): The same effect was observed
